Where two headings read alike, the source gives them in different places.
Columns and labels:
Format in all cases: cell-based
[1] = tested on: HAP1 MTAP-intact cell line; assay: SDMA in-cell western assay, HAP1 MTAP-intact; conditions: Homo sapiens
Description: (§1) Table 1 also indicates IC50 values in an MTAP-isogenic cell line pair for exemplary compounds in an SDMA in-cell western assay (columns 7-8). HAP1 MTAP-intact is a cell line in which endogenous levels of MTAP are expressed, and HAP1 MTAP-deleted is an MTAP-null cell line.

[2] = tested on: HAP1 MTAP-deleted cell line; assay: SDMA in-cell western assay, HAP1 MTAP-deleted; conditions: for IC50: Homo sapiens; for MTAP intact/deleted ratio: IC50 ratio HAP1 MTAP-intact / HAP1 MTAP-deleted, SDMA in-cell western
Description: as §1

[3] = tested on: HAP1 MTAP-deleted cell line; assay: Viability assay, MTAP-deleted cell line; conditions: Homo sapiens
Description: Table 1 additionally indicates IC50 values in a viability assay for the MTAP-deleted cell line (column 10), indicating the effect of treatment with compound on cell survival.

[4] = HAP1, SDMA in-cell western, HAP1 MTAP-intact, read-out: MTAP HAP1 intact IC50
[5] = HAP1, SDMA in-cell western, HAP1 MTAP-deleted, read-out: HAP 1 MTAP deleted IC50
[6] = HAP1, viability IC50, MTAP-deleted cell line, read-out: HAP1 MTAP deleted viability
[7] = HAP1, read-out: MTAP HAP1 intact IC50
[8] = HAP1, read-out: HAP1 MTAP deleted IC50
[9] = HAP1, read-out: HAP1 MTAP deleted viability

Structure (SMILES) | IC50 [1, 4] [nM] | IC50 [2, 5] [nM] | MTAP intact/deleted ratio [2] | IC50 [3, 6] [nM] | IC50 [1, 7] [nM] | IC50 [2, 8] [nM] | IC50 [3, 9] [nM]
Cc1cc([C@H]2CC[C@H](C)CN2C(=O)C(=O)Nc2cncc(C(N)=O)c2)cc2cn[nH]c12 (relative stereo) [Compound 638, 5-[[2-[(2R,5S)-5-methyl-2-(7-methyl-1H-indazol-5-yl)-1-piperidyl]-2-oxo-acetyl]amino]pyridine-3-carboxamide] | > 1000 | < 100 | A (an IC50 ratio greater than or equal to 10 fold) | 1000 to 10000 | – | – | –
Cc1cncc(NC(=O)C(=O)N2C[C@@H](C)CC[C@@H]2c2ccccc2)c1 (single isomer, unassigned) [Compound 2] | – | – | – | – | > 1000 | > 1000 | > 10000
Cc1cncc(NC(=O)C(=O)N2[C@@H](c3ccccc3)CC[C@H](C)[C@H]2C)c1 (single isomer, unassigned) [Compound 32] | – | – | – | – | > 1000 | > 1000 | > 10000
Cc1cc(NC(=O)C(=O)N2C[C@@H](C)CC[C@@H]2c2ccccc2)cnc1N (single isomer, unassigned) [Compound 33] | – | – | – | – | 100 to 1000 | < 100 | 1000 to 10000
Cc1cncc(NC(=O)C(=O)N2[C@@H](c3ccccc3)CC[C@@H](C)[C@H]2C)c1 (single isomer, unassigned) [Compound 35] | – | – | – | – | > 1000 | > 1000 | > 10000
Cc1cc(NC(=O)C(=O)N2C[C@H](C)CC[C@@H]2c2ccccc2)cnc1N (single isomer, unassigned) [Compound 37] | – | – | – | – | > 1000 | 100 to 1000 | 1000 to 10000
Cc1cncc(NC(=O)C(=O)N2[C@H](c3ccccc3)CC[C@@H](C)[C@@H]2C)c1 (single isomer, unassigned) [Compound 39] | – | – | – | – | > 1000 | > 1000 | > 10000
C[C@H]1CC[C@@H](c2ccccc2)N(C(=O)C(=O)Nc2cncc(C(N)=O)c2)C1 (single isomer, unassigned) [Compound 82] | – | – | – | – | > 1000 | 100 to 1000 | > 10000
C[C@H]1CC[C@H](c2ccccc2)N(C(=O)C(=O)Nc2cncc(C(N)=O)c2)C1 (single isomer, unassigned) [Compound 88] | – | – | – | – | > 1000 | < 100 | 1000 to 10000
Cc1cc(NC(=O)C(=O)N2CCCC[C@H]2c2ccccc2)cnc1C (single isomer, unassigned) [Compound 188] | – | – | – | – | > 1000 | > 1000 | > 10000
Cc1cc(NC(=O)C(=O)N2CCCC[C@@H]2c2ccccc2)cnc1C (single isomer, unassigned) [Compound 189] | – | – | – | – | > 1000 | > 1000 | > 10000
Cc1cc(NC(=O)C(=O)N2C[C@H](C)CC[C@H]2c2ccc(F)cc2)cnc1N (single isomer, unassigned) [Compound 233] | – | – | – | – | > 1000 | > 1000 | > 10000
Cc1cc(NC(=O)C(=O)N2C[C@@H](C)CC[C@@H]2c2ccc(F)cc2)cnc1N (single isomer, unassigned) [Compound 242] | – | – | – | – | 100 to 1000 | < 100 | < 1000
C[C@H]1CC[C@H](c2ccc(O)cc2)N(C(=O)C(=O)Nc2cncc(C(N)=O)c2)C1 (single isomer, unassigned) [Compound 287] | – | – | – | – | 100 to 1000 | < 100 | < 1000
C[C@@H]1CC[C@@H](c2ccc(O)cc2)N(C(=O)C(=O)Nc2cncc(C(N)=O)c2)C1 (single isomer, unassigned) [Compound 297] | – | – | – | – | > 1000 | > 1000 | > 10000
C[C@H]1CC[C@H](c2ccc3c(c2)CC(=O)N3)N(C(=O)C(=O)Nc2cncc(C(N)=O)c2)C1 (single isomer, unassigned) [Compound 319] | – | – | – | – | 100 to 1000 | < 100 | 1000 to 10000
C[C@@H]1CC[C@@H](c2ccc3[nH]cnc3c2)N(C(=O)C(=O)Nc2cncc(C(N)=O)c2)C1 (single isomer, unassigned) [Compound 344] | – | – | – | – | > 1000 | 100 to 1000 | 1000 to 10000
C[C@@H]1CC[C@@H](c2ccc(C(F)F)cc2)N(C(=O)C(=O)Nc2cncc(C(N)=O)c2)C1 (single isomer, unassigned) [Compound 358] | – | – | – | – | > 1000 | > 1000 | > 10000
C[C@H]1CC[C@H](c2ccc(C(F)F)cc2)N(C(=O)C(=O)Nc2cncc(C(N)=O)c2)C1 (single isomer, unassigned) [Compound 359] | – | – | – | – | > 1000 | < 100 | 1000 to 10000
C[C@H]1CC[C@H](c2ccc3[nH]ncc3c2)N(C(=O)C(=O)Nc2cncc(C(N)=O)c2)C1 (single isomer, unassigned) [Compound 360] | – | – | – | – | > 1000 | > 1000 | > 10000

Structure (SMILES) | IC50 [1, 4] [nM] | IC50 [2, 5] [nM] | MTAP intact/deleted ratio [2] | IC50 [3, 6] [nM] | IC50 [1, 7] [nM] | IC50 [2, 8] [nM] | IC50 [3, 9] [nM]
C[C@@H]1CC[C@@H](c2ccc3[nH]ncc3c2)N(C(=O)C(=O)Nc2cncc(C(N)=O)c2)C1 (single isomer, unassigned) [Compound 361] | – | – | – | – | 100 to 1000 | < 100 | < 1000
Cc1cc(NC(=O)C(=O)N2C[C@H](C)CC[C@H]2c2ccc3[nH]ncc3c2)cnc1N (single isomer, unassigned) [Compound 363] | – | – | – | – | < 100 | < 100 | < 1000
Cc1cc(NC(=O)C(=O)N2C[C@@H](C)CC[C@@H]2c2ccc3[nH]ncc3c2)cnc1N (single isomer, unassigned) [Compound 364] | – | – | – | – | > 1000 | > 1000 | > 10000
C[C@@H]1CC[C@@H](c2ccc3[nH]ccc3c2)N(C(=O)C(=O)Nc2cncc(C(N)=O)c2)C1 (single isomer, unassigned) [Compound 372] | – | – | – | – | > 1000 | > 1000 | > 10000
Cc1cc(NC(=O)C(=O)N2C[C@H](C)CC[C@H]2c2ccc3[nH]ccc3c2)cnc1N (single isomer, unassigned) [Compound 385] | – | – | – | – | 100 to 1000 | < 100 | < 1000
Cc1cc(NC(=O)C(=O)N2C[C@@H](C)CC[C@@H]2c2ccc3[nH]ccc3c2)cnc1N (single isomer, unassigned) [Compound 388] | – | – | – | – | > 1000 | > 1000 | > 10000
Cc1cc(NC(=O)C(=O)N2C[C@@H](C)CC[C@H]2c2ccc3[nH]ncc3c2)cnc1N (single isomer, unassigned) [Compound 392] | – | – | – | – | > 1000 | < 100 | 1000 to 10000
Cc1cc(NC(=O)C(=O)N2C[C@@H](C)CC[C@@H]2c2ccc(O)cc2)cnc1N (single isomer, unassigned) [Compound 396] | – | – | – | – | > 1000 | > 1000 | > 10000
Cc1cc(NC(=O)C(=O)N2C[C@H](C)CC[C@H]2c2ccc(O)cc2)cnc1N (single isomer, unassigned) [Compound 397] | – | – | – | – | 100 to 1000 | < 100 | < 1000
Cc1cc(NC(=O)C(=O)N2C[C@@H](C)CC[C@@H]2c2ccc3[nH]cnc3c2)cnc1N (single isomer, unassigned) [Compound 408] | – | – | – | – | 100 to 1000 | < 100 | < 1000
Cc1cc(NC(=O)C(=O)N2C[C@H](C)CC[C@H]2c2ccc(C(F)F)cc2)cnc1N (single isomer, unassigned) [Compound 419] | – | – | – | – | 100 to 1000 | < 100 | 1000 to 10000
C[C@H]1CC[C@H](c2ccc3c(c2)CCC(=O)N3)N(C(=O)C(=O)Nc2cncc(C(N)=O)c2)C1 (single isomer, unassigned) [Compound 479] | – | – | – | – | > 1000 | < 100 | 1000 to 10000
C[C@@H]1CC[C@@H](c2ccc3c(c2)CCC(=O)N3)N(C(=O)C(=O)Nc2cncc(C(N)=O)c2)C1 (single isomer, unassigned) [Compound 480] | – | – | – | – | > 1000 | > 1000 | > 10000
C[C@H]1CC[C@H](c2ccc3[nH]ccc3c2)N(C(=O)C(=O)Nc2cncc(C(N)=O)c2)C1 (single isomer, unassigned) [Compound 481] | – | – | – | – | 100 to 1000 | < 100 | < 1000
Cc1cc(NC(=O)C(=O)N2C[C@@H](C)CC[C@@H]2c2ccc3c(c2)CCC(=O)N3)cnc1N (single isomer, unassigned) [Compound 502] | – | – | – | – | 100 to 1000 | < 100 | < 1000
Cc1cc(NC(=O)C(=O)N2C[C@H](C)CC[C@H]2c2ccc3c(c2)CCC(=O)N3)cnc1N (single isomer, unassigned) [Compound 505] | – | – | – | – | 100 to 1000 | < 100 | < 1000
C[C@H]1CC[C@H](c2ccc3scnc3c2)N(C(=O)C(=O)Nc2cncc(C(N)=O)c2)C1 (single isomer, unassigned) [Compound 587] | – | – | – | – | 100 to 1000 | < 100 | < 1000
C[C@@H]1CC[C@@H](c2ccc3scnc3c2)N(C(=O)C(=O)Nc2cncc(C(N)=O)c2)C1 (single isomer, unassigned) [Compound 588] | – | – | – | – | > 1000 | > 1000 | > 10000
Cc1cc([C@@H]2CC[C@@H](C)CN2C(=O)C(=O)Nc2cncc(C(N)=O)c2)cc2cn[nH]c12 (single isomer, unassigned) [Compound 611] | > 1000 | > 1000 | C (an IC50 ratio of less than 3 fold) | > 10000 | – | – | –
